According to ChEMBL document CHEMBL5649167, “The SUV4-20 inhibitor A-196 verifies a role for epigenetics in genomic integrity” (Nat Chem Biol, 2017):
Calls of active or inactive are those of the source. The calls are words filed in the database; no cut-off is given here.

What was measured:
[1] = biological target: Delta-type opioid receptor (Homo sapiens) (UniProt P41143); test: Inhibition of human Delta-type opioid receptor at 10 uM relative to control
[2] = biological target: Muscarinic acetylcholine receptor M3 (Homo sapiens) (UniProt P20309); test: Inhibition of human Muscarinic acetylcholine receptor M3 expressed in stable Cricetulus griseus CHO cells at 10 uM relative to control; type: cell-based
Sequence of Muscarinic acetylcholine receptor M3 (Homo sapiens) (P20309 whole entry, looked up): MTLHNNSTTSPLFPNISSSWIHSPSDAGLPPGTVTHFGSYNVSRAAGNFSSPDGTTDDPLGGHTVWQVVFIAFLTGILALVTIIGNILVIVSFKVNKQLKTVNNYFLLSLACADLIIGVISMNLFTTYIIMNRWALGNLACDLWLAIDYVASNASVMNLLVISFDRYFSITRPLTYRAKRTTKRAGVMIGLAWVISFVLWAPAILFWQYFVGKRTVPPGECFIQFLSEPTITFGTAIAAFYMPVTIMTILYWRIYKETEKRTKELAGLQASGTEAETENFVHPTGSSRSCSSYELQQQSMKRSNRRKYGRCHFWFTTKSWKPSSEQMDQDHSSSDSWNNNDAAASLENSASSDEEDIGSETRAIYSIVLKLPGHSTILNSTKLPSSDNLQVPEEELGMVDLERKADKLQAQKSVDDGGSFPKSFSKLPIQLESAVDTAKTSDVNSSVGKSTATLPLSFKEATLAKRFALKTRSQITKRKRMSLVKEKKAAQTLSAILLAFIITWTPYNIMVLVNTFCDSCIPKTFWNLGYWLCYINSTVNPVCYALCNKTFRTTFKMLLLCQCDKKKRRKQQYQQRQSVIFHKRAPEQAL

[3] = biological target: 5-hydroxytryptamine receptor 2A (Homo sapiens) (UniProt P28223); test: Inhibition of human 5-HT2A receptor expressed in HEK293T cells at 10 uM relative to control; type: cell-based
Sequence of 5-hydroxytryptamine receptor 2A (Homo sapiens) (P28223 whole entry): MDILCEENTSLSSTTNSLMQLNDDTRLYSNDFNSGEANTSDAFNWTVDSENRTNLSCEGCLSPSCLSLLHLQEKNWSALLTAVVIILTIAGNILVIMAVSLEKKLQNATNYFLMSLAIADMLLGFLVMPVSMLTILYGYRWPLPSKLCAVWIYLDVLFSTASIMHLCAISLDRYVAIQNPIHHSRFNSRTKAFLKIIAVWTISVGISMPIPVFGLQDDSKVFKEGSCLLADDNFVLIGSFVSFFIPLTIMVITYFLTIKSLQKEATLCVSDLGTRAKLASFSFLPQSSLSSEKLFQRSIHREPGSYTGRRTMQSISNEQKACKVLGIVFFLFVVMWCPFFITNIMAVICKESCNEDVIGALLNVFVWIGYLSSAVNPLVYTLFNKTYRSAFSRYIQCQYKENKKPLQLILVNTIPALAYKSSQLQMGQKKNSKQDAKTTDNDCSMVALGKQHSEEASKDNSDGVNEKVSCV

[4] = biological target: Muscarinic acetylcholine receptor M5 (Homo sapiens) (UniProt P08912); test: Inhibition of human Muscarinic acetylcholine receptor M5 expressed in stable Cricetulus griseus CHO cells at 10 uM relative to control; type: cell-based
Sequence of Muscarinic acetylcholine receptor M5 (Homo sapiens) (P08912 whole entry): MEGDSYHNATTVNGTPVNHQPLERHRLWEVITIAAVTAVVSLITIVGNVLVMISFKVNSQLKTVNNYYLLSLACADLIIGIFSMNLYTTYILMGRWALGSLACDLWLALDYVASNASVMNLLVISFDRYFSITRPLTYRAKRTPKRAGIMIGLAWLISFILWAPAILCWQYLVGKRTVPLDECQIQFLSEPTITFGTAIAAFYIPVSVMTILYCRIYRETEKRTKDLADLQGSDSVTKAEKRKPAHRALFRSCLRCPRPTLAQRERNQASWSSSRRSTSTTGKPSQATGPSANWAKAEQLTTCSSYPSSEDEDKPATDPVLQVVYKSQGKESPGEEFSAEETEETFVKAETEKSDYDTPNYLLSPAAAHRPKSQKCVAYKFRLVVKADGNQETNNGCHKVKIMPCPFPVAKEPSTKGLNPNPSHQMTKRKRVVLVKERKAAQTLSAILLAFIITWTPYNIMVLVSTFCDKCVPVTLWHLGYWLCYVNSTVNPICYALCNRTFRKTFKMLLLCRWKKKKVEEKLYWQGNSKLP

Homo sapiens = species on record: Homo sapiens; test: Inhibition of human 5-HT3 at 10 uM relative to control
Embryonic stem cell [5] = test: Antiproliferative activity against mouse Embryonic stem cell assessed as […] in H4K20me3 at 10 uM incubated for 3 days by immunofluorescence analysis; type: functional, cell-based; details: time 3.0 day
[6] = biological target: 5-hydroxytryptamine receptor 5A (Homo sapiens) (UniProt P47898); test: Inhibition of human 5-HT5a at 10 uM relative to control
Sequence of 5-hydroxytryptamine receptor 5A (Homo sapiens) (P47898 whole entry): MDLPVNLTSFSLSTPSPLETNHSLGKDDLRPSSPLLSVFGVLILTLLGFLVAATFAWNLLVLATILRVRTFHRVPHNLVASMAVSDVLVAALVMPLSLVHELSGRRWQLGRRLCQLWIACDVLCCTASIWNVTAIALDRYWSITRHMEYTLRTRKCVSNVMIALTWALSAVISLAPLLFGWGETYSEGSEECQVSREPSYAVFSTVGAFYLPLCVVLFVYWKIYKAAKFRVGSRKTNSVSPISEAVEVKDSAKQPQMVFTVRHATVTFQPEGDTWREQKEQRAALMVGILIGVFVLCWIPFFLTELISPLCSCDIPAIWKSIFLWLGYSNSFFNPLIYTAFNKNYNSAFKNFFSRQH

[7] = biological target: Neuromedin-K receptor (Homo sapiens) (UniProt P29371); test: Inhibition of human Neuromedin-K receptor at 10 uM relative to control
[8] = biological target: T1, Muscarinic acetylcholine receptor M2 (Homo sapiens) (UniProt P08172); test: Inhibition of human Muscarinic acetylcholine receptor M2 expressed in stable Cricetulus griseus CHO cells at 10 uM relative to control; type: cell-based
T1 sequence (whole entry): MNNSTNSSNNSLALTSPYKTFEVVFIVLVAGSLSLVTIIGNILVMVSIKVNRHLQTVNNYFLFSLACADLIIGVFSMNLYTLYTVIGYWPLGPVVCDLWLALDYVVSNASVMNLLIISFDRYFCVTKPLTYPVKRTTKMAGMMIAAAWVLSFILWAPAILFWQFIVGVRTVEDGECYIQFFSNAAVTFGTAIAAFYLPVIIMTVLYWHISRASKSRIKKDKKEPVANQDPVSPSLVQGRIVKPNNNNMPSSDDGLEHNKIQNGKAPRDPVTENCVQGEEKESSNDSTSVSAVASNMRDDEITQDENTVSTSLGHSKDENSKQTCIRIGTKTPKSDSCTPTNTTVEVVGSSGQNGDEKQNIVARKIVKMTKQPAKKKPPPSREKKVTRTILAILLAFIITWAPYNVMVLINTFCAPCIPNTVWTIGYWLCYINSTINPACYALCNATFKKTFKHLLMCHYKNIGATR

[9] = biological target: Muscarinic acetylcholine receptor M3 (Homo sapiens) (UniProt P20309); test: Inhibition of human Muscarinic 3 at 10 uM relative to control
[10] = biological target: T2, Muscarinic acetylcholine receptor M1 (Homo sapiens) (UniProt P11229); test: Inhibition of human Muscarinic acetylcholine receptor M1 expressed in stable Cricetulus griseus CHO cells at 10 uM relative to control; type: cell-based
T2 sequence (whole entry): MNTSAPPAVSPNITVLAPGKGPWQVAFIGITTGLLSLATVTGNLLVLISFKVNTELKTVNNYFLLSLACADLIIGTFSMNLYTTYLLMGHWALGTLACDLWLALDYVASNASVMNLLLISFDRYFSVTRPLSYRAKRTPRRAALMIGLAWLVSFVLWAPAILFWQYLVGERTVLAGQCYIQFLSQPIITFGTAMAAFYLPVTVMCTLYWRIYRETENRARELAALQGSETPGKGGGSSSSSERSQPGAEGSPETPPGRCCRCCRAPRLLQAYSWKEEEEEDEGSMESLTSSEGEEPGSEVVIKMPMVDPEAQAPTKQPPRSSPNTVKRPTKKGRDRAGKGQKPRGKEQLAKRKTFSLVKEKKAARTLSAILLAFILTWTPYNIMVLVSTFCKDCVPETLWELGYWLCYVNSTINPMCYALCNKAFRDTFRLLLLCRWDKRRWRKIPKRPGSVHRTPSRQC

[11] = biological target: 5-hydroxytryptamine receptor 6 (Homo sapiens) (UniProt P50406); test: Inhibition of human 5-HT6 at 10 uM relative to control
Sequence of 5-hydroxytryptamine receptor 6 (Homo sapiens) (P50406 whole entry): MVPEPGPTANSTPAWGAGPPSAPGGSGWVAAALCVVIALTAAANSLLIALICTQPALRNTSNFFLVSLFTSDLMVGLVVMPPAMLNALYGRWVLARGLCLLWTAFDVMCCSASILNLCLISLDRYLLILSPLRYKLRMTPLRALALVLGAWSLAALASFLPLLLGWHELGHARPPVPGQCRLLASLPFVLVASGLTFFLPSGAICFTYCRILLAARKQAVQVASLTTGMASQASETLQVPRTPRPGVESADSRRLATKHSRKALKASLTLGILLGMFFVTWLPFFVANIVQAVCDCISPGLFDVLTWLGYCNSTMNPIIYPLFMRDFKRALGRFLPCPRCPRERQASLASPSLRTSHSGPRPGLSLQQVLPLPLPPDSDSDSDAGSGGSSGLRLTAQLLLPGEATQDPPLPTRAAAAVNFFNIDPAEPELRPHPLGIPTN

[12] = biological target: 5-hydroxytryptamine receptor 5A (Homo sapiens) (UniProt P47898); test: Inhibition of human HTR5A expressed in Cricetulus griseus Flp-In-CHO cells at 10 uM relative to control; type: cell-based
[13] = biological target: Melanocortin receptor 4 (Homo sapiens) (UniProt P32245); test: Inhibition of human Melanocortin receptor 4 at 10 uM relative to control
B-cell = test: Induction of DNA repair in mouse B cells assessed as inhibition in H4K20me3 level at 1 to 10 uM incubated for 96 hrs by western blot analysis; type: functional, cell-based; details: dose 1-10 µM
[14] = biological target: Adenosine receptor A3 (Homo sapiens) (UniProt P0DMS8); test: Inhibition of human Adenosine receptor A3 at 10 uM relative to control
Sequence of Adenosine receptor A3 (Homo sapiens) (P0DMS8 whole entry): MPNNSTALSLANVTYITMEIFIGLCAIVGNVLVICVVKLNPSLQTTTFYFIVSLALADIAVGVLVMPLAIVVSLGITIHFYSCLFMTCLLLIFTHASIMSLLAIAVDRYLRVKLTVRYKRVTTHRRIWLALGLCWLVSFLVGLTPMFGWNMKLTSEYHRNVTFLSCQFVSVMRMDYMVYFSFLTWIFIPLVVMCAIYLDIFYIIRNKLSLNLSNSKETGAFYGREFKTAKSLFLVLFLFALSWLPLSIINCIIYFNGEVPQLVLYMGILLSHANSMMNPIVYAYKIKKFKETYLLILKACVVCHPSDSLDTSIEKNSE

[15] = biological target: Histamine H1 receptor (Homo sapiens) (UniProt P35367); test: Inhibition of human histamine H1 receptor expressed in stable HEK cells at 10 uM relative to control; type: cell-based
[16] = biological target: D(1A) dopamine receptor (Homo sapiens) (UniProt P21728); test: Inhibition of human D(1A) dopamine receptor at 10 uM relative to control
Sequence of D(1A) dopamine receptor (Homo sapiens) (P21728 whole entry): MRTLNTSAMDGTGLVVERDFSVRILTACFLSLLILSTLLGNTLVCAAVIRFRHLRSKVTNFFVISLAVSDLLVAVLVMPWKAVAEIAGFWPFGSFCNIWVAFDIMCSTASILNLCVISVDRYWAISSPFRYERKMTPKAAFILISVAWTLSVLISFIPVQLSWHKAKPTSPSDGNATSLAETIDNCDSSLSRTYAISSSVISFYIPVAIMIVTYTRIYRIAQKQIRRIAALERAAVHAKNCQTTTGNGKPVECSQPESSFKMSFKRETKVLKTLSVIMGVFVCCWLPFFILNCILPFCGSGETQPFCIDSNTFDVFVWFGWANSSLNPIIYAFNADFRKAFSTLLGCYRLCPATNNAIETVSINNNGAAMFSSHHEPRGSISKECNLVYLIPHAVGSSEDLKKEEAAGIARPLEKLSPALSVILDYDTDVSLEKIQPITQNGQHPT

[17] = biological target: Prostaglandin E2 receptor EP4 subtype (Homo sapiens) (UniProt P35408); test: Inhibition of human Prostanoid EP4 receptor at 10 uM relative to control
[18] = biological target: Adenosine receptor A2a (Homo sapiens) (UniProt P29274); test: Inhibition of human Adenosine receptor A2a at 10 uM relative to control
[19] = biological target: Alpha-2B adrenergic receptor (Homo sapiens) (UniProt P18089); test: Inhibition of human Alpha-2B adrenergic receptor expressed in HEK293T cells at 10 uM relative to control; type: cell-based
[20] = biological target: 5-hydroxytryptamine receptor 6 (Homo sapiens) (UniProt P50406); test: Inhibition of human 5-HT6 expressed in stable HEK cells at 10 uM relative to control; type: cell-based
[21] = biological target: Alpha-2A adrenergic receptor (Homo sapiens) (UniProt P08913); test: Inhibition of human Alpha-2A adrenergic receptor in stable Canis lupus familiaris MDCK cells at 10 uM relative to control; type: cell-based
Sequence of Alpha-2A adrenergic receptor (Homo sapiens) (P08913 whole entry): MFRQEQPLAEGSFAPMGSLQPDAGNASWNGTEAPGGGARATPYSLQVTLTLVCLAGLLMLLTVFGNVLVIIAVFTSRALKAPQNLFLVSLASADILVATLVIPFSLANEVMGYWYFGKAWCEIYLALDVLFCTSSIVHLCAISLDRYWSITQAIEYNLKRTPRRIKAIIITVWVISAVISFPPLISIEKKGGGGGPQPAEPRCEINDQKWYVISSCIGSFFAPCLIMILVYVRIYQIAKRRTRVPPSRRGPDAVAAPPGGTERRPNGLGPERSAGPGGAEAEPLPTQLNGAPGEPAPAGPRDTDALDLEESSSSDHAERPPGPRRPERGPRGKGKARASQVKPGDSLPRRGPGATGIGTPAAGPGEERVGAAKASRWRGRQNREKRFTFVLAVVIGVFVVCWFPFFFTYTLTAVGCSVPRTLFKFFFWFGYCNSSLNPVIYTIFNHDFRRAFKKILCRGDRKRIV

[22] = biological target: Beta-1 adrenergic receptor (Homo sapiens) (UniProt P08588); test: Inhibition of human Beta-1 adrenergic receptor expressed in Cricetulus griseus Flp-In-CHO cells at 10 uM relative to control; type: cell-based
Sequence of Beta-1 adrenergic receptor (Homo sapiens) (P08588 whole entry, looked up): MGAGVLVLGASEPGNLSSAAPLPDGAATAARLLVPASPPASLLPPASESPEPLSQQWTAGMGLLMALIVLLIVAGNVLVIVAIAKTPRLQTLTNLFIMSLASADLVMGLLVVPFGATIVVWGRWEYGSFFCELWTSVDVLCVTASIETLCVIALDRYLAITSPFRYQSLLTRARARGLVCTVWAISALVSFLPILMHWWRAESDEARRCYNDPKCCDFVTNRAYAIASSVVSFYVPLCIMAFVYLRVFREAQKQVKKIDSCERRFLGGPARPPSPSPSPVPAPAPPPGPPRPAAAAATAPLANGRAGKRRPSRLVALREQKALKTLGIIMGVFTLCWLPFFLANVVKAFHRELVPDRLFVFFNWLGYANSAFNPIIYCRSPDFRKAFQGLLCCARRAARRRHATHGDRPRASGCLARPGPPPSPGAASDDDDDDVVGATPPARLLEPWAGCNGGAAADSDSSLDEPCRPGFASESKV

[23] = biological target: Sodium-dependent serotonin transporter (Homo sapiens) (UniProt P31645); test: Inhibition of human 5-HT transporter at 10 uM relative to control
[24] = biological target: Delta-type opioid receptor (Homo sapiens) (UniProt P41143); test: Inhibition of human Delta-type opioid receptor expressed in stable HEK cells at 10 uM relative to control; type: cell-based
[25] = biological target: 5-hydroxytryptamine receptor 2B (Homo sapiens) (UniProt P41595); test: Inhibition of human 5-hydroxytryptamine receptor 2B at 10 uM relative to control
Embryonic stem cell [26] = test: Antiproliferative activity against mouse Embryonic stem cell assessed as reduction in H4K20me3 at 10 uM incubated for 3 days by immunofluorescence analysis; type: functional, cell-based; details: time 3.0 day
[27] = biological target: Muscarinic acetylcholine receptor M4 (Homo sapiens) (UniProt P08173); test: Inhibition of human Muscarinic acetylcholine receptor M4 expressed in stable Cricetulus griseus CHO cells at 10 uM relative to control; type: cell-based
Sequence of Muscarinic acetylcholine receptor M4 (Homo sapiens) (P08173 whole entry): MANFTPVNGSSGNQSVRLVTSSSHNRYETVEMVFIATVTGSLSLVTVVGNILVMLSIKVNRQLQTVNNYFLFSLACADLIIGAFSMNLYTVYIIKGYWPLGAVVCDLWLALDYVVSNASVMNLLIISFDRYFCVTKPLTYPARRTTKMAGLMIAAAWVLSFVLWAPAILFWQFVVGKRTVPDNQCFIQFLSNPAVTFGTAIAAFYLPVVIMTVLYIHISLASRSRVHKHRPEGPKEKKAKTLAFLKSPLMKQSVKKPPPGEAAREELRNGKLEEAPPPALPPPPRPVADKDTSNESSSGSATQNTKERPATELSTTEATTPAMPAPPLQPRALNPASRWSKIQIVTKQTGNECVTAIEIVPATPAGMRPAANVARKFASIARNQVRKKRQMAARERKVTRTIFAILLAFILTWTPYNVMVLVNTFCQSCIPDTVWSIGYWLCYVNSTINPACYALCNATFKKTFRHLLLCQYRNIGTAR

Sequence of Delta-type opioid receptor (Homo sapiens) (P41143 whole entry): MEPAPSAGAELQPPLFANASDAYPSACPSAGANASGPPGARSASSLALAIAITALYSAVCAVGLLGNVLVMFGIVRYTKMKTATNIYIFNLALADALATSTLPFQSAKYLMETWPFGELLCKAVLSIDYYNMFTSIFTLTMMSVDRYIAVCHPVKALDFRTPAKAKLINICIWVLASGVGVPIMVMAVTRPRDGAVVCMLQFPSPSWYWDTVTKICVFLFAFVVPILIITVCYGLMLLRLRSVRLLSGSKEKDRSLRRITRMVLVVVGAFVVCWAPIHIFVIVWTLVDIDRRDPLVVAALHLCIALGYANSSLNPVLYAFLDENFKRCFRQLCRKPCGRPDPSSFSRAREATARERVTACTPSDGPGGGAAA

| SMILES | inhibition [1] [%] | inhibition [2] [%] | inhibition [3] [%] | inhibition [4] [%] | inhibition (Homo sapiens) [%] | Activity (Embryonic stem cell [5]) | inhibition [6] [%] | inhibition [7] [%] | inhibition [8] [%] | inhibition [9] [%] | inhibition [10] [%] | inhibition [11] [%] | inhibition [12] [%] | inhibition [13] [%] | inhibition (B-cell) | inhibition [14] [%] | inhibition [15] [%] | inhibition [16] [%] | inhibition [17] [%] | inhibition [18] [%] | further results |
| --- | --- | --- | --- | --- | --- | --- | --- | --- | --- | --- | --- | --- | --- | --- | --- | --- | --- | --- | --- | --- | --- |
| O=C(c1nnc(NC2CCCC2)c2cc(Cl)c(Cl)cc12)N1CCC(O)CC1 | 6 | -3 | 81 | -4 | 6 | inactive | 2 | 11 | -5 | 18 | -8 | -4 | -1 | -1 | inactive | 27 | 2 | -3 | -2 | 22 | inhibition [19]: 7%; inhibition [20]: -1%; inhibition [21]: 5%; inhibition [22]: -4%; inhibition [23]: -7%; inhibition [24]: 8%; inhibition [25]: 8%; Activity (Embryonic stem cell [26]): inactive; inhibition [27]: -7% |
| Clc1cc2c(NC3CCCC3)nnc(-c3ccncc3)c2cc1Cl | 51 | -8 | 39 | -1 | 4 | Active | 9 | 26 | -1 | 11 | 4 | -1 | 5 | 14 | Active | 74 | 17 | 15 | 7 | 98 | inhibition [19]: 14%; inhibition [20]: -2%; inhibition [21]: -6%; inhibition [22]: 32%; inhibition [23]: 5%; inhibition [24]: 11%; inhibition [25]: 27%; Activity (Embryonic stem cell [26]): Active; inhibition [27]: -3% |
